Test results taken from article PMC3281519 (Journal of Medicinal Chemistry, 2011).

Assays:
[1] = Pharmacokinetic screening by oral cassette dosing in mice; assay type: in vivo; settings: mouse; compared to 21i and 21j
recombinant human sEH = biological target: T1, recombinant human sEH (Homo sapiens, UniProt P34913); experiment: sEH IC50 kinetic fluorescent assay; assay type: biochemical
T1 sequence (P34913 1-555): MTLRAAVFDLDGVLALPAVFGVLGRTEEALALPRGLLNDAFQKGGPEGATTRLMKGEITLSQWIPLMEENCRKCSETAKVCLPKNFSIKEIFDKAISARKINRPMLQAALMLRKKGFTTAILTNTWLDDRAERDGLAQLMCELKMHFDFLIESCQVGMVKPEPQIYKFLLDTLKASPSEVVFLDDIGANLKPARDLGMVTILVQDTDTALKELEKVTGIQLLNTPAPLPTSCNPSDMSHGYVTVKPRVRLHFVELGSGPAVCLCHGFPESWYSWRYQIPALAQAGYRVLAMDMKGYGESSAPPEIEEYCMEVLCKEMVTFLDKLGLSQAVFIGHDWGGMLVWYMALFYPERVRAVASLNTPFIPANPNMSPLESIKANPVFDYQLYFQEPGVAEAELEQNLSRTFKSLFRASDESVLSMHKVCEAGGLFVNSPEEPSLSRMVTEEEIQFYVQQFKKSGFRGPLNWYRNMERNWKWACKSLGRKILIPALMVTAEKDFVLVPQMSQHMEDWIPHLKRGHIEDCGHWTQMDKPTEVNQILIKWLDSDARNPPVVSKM

human recombinant COX-2 = biological target: T2, human recombinant COX-2 (Homo sapiens, UniProt P35354); experiment: COX Fluorescent Inhibitor Screening Assay, COX-2; settings: compared to compound 21b
T2 sequence (P35354 18-604): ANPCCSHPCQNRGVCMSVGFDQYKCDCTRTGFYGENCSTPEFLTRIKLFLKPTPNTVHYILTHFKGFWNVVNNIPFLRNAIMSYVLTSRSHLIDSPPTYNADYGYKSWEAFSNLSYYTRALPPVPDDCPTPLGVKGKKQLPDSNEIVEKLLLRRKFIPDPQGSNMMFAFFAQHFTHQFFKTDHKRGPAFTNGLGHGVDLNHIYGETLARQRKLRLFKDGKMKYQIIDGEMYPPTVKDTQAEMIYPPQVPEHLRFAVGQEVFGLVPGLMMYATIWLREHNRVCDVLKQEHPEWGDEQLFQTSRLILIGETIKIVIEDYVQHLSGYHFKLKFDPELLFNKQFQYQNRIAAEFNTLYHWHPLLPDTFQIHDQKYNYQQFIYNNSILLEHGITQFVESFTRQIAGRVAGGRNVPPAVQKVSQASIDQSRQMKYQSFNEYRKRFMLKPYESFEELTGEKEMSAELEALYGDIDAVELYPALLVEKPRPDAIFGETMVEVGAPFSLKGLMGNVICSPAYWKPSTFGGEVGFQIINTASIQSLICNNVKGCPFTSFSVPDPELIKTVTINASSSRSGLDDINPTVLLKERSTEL

U937 cell line = experiment: Acute toxicity on U937 cell line; assay type: cell-based; settings: U937 cells
[2] = Pharmacokinetics after oral administration in rats; assay type: in vivo; settings: rat; compared with 21j
Sprague-Dawley rats = assay type: in vivo; settings: rats treated at 10 mg/kg s.c., observed over nine hours

In the case of `NS(=O)(=O)c1ccc(-n2nc(CCCNC(=O)Nc3cccc(C(F)(F)F)c3)cc2-c2ccccc2)cc1` [Compound 21b, 4-(5-Phenyl-3-{3-[3-(3-trifluoromethyl-phenyl)-ureido]-propyl}-pyrazol-1-yl)-benzenesulfonamide], the “decrease in AUC” value [1] was 8 fold, the “lower Cmax” value [1] was 15 fold and the “improvement of sEH inhibition” value (recombinant human sEH; compared to compound 11g) was 20 fold.
In the case of `CS(=O)(=O)c1ccc(-n2nc(CNC(=O)NC3CCCCCC3)cc2-c2ccccc2)cc1` [Compound 11b, 1-Cycloheptyl-3-[1-(4-methanesulfonyl-phenyl)-5-phenyl-1H-pyrazol-3-ylmethyl]-urea], the “improvement of sEH inhibition” value (recombinant human sEH; compared with compound 11a) was 10 fold.
For `NS(=O)(=O)c1ccc(-n2nc(CCNC(=O)Nc3cccc(C(F)(F)F)c3)cc2-c2ccccc2)cc1` [Compound 15, 4-(5-Phenyl-3-{2-[3-(3-trifluoromethyl-phenyl)-ureido]-ethyl}-pyrazol-1-yl)-benzenesulfonamide], the “improvement of sEH inhibition” value (recombinant human sEH; compared to compound 11g) was 3 fold.
For `Cc1ccc(-c2cc(CCCNC(=O)Nc3cccc(C(F)(F)F)c3)nn2-c2ccc(S(N)(=O)=O)cc2)cc1` [Compound 21c], the “diminished sEH activity” value (recombinant human sEH; compared to compound 21b) was 3 fold and the “diminished COX-2 activity” value (human recombinant COX-2) was 3 fold.
For `NS(=O)(=O)c1ccc(-n2nc(CCCNC(=O)Nc3ccc(C(F)(F)F)cc3)cc2-c2ccccc2)cc1` [Compound 21i, 4-(5-Phenyl-3-{3-[3-(4-trifluoromethyl-phenyl)-ureido]-propyl}-pyrazol-1-yl)-benzenesulfonamide], the “acute toxicity on U937 cell line” value (U937 cell line) was “did not observe any acute toxicity”, the “higher Cmax” value [2] was 2 fold and the “overt signs of behavioral changes or acute toxicity” value (Sprague-Dawley rats) was “no overt signs of any behavioral changes or acute observable symptoms of toxicity”.
